Source: a melting point compilation (Tetko et al.; mined from patent text by program, amines drawn as free bases though some values may be those of a salt)

| Structure (SMILES) | melting point |
| --- | --- |
| COc1cc2c(cc1O)CCN(C(=O)c1ccc(C#N)cc1)C2=O | 198 to 199 °C |
| COc1ccc([N+](=O)[O-])c(CS(=O)(=O)c2ccccc2)n1 | 147 to 149 °C |
| CC(C)N1C(=O)N(c2ccc(F)cc2)CSC1=NC(C)(C)C | 109 to 110 °C |
| O=C1CCC2(c3c[nH]cn3)Cc3ccccc3C12 (stereo not given) | 234 to 236 °C |
| CC(C)CCOc1c(-c2ccc(S(N)(=O)=O)cc2)cnn(C(C)(C)C)c1=O | 153 to 155 °C |
| CC(=O)Oc1ccc(C(=O)Nc2ccc(Cl)c(NC(=O)c3ccc(C#N)cc3)c2)cc1 | 195 to 196 °C |
| COC1CC(OCc2ccccc2)C(OS(=O)(=O)c2ccc(C)cc2)C(CO)O1 (stereo not given) | 100 to 101 °C |
| COc1ccc(C(=O)NC(=O)Nc2ccc3c(c2)/C(=C/c2ccc[nH]2)C(=O)N3)cc1 | 278 to 283 °C |
| COc1ccc2[nH]c(S(=O)Cc3cc(N(C)C)c(Cl)cn3)nc2c1 (stereo not given) | 155 to 157 °C |
| O=[N+]([O-])c1cc(Br)ccc1N1CCc2cc(Br)ccc21 | 150 to 152 °C |
| O=C(O)CCc1cn(Cc2ccc(OCc3csc(-c4cccs4)n3)cc2)cc1-c1ccccc1 | 106 to 107 °C |
| COc1ccc(C2=CS(=O)CCC2)cc1OC1CCCC1 (stereo not given) | 96 to 98 °C |
| CCCCCCCCCCCCCCCCCCOc1ccc(O)c(C(=O)N(CC(=O)O)CC(=O)O)c1 | 128 to 132 °C |
| CCn1nc(C)c2c1C(=O)Nc1ccccc1N2C(=O)CCl | 208 to 210 °C |
| COc1ccc(C(=O)Nc2ccccc2)cc1NCc1ccccc1 | 164 to 165 °C |
| Nc1ccc(S(=O)(=O)C(F)(F)F)c2sc3ccccc3c12 | 108 °C |
| CCCCN1CCC(CCC(=O)c2cc(Cl)c(N)nc2OC)CC1 | 86 to 87 °C |
| O=C(NN=Cc1ccnc2ccccc12)c1cccnc1 | 99.6 °C |
| COC(=O)CCCc1cc2cc(C(F)(F)F)ccc2n1S(=O)(=O)c1ccc2ncsc2c1 | 117 to 121 °C |
| Nc1cc(/C=C/c2cc(/C=C/c3ccc4cc[nH]c4c3)[nH]n2)ccc1O | 123 to 126 °C |
| O=C(C=Cc1cccnc1)NCCCCC1CCN(Cc2ccccc2)CC1 | 88 to 90 °C |
| COC(=O)c1nsnc1Br | 57 to 58 °C |
| O=C(C=Cc1ccncc1)c1ccc([N+](=O)[O-])cc1 | 218 to 221 °C |
| Oc1nc(Cc2ccc(F)cc2F)ncc1F | 155 to 156 °C |

| Structure (SMILES) | melting point |
| --- | --- |
| OCc1cccc(C(O)(C(F)(F)F)C(F)(F)F)n1 | 62 to 63 °C |
| COc1cnc(C(=O)O)cc1Cl | 209 °C |
| CN(C)CCN(CCN(C)C)c1cccc(-c2nc3cc(Cl)c(Cl)cc3[nH]2)c1 | 129 to 132 °C |
| CC(C)CC(NC(=O)Cc1ccc(NC(=O)Nc2ccccc2Cl)cc1)c1ncc(CCC(=O)O)s1 (stereo not given) | 173 to 175 °C |
| Nc1ccc2c(c1)OCC(CN1CC=C(c3c[nH]c4ccccc34)CC1)O2 (stereo not given) | 199 to 200 °C |
| COCc1cc(Cl)cc(C(=O)c2nc(OC)cc(OC)n2)c1[N+](=O)[O-] | 130 to 131 °C |
| COc1ccc(C(=O)Nc2c(Cl)cncc2Cl)c2c1OCC2CC(=O)O (stereo not given) | 259 to 263 °C |
| CCOCc1nc2c(N)nc(C)cc2n1NC(C)C | 139 to 141 °C |
| O=C(C=Cc1ccccc1)Nc1ccc2ccc(Cl)nc2n1 | 263 °C |
| CC(C)(C)NC(=O)c1ccccc1Cc1ccccc1 | 91 to 92 °C |
| CCc1nc2c(C)cc(C)nc2n1Cc1ccc(C(c2ccccc2)C(CO)c2nnn[nH]2)cc1 (stereo not given) | 128 to 132 °C |
| O=c1[nH]c(=O)n(CCCCBr)c2cc([N+](=O)[O-])ccc12 | 202 to 203 °C |
| S=C(NCc1ccccc1)C1(c2ccccn2)CCCS1 (stereo not given) | 71 °C |
| COC(COC(=O)C1=C(C)NC2=C(C(=O)CN(Cc3ccccc3)C2)C1c1c(F)c(F)c(F)c(F)c1F)c1ccccc1 (stereo not given) | 220 to 222 °C |
| COc1ccc(N2C(=O)NC3(CCOCC3)C2=O)cc1 | 253 to 254 °C |
| CC(C)(Cc1cccc(C(=O)c2cccc(CC(C)(C)C(=O)O)c2)c1)C(=O)O | 46 to 48 °C |
| CCOC(=O)C1CCC(c2ccc(Cl)cc2)n2c(=O)n(CCCl)c(=O)n21 (stereo not given) | 111 to 112 °C |
| Cn1nc(-c2ccccc2)c(C=Cc2ccccc2C(=O)O)c1Cl | 161 to 163 °C |
| CCN(CC)C(=O)NCCc1cccc(-c2nc(=O)c3ccccc3s2)n1 | 175 to 176 °C |
| O=C1C(=O)c2ccccc2C2=C1SCC1(CCN(C(=O)c3cccnc3)CC1)O2 | 218 to 220 °C |
| O=S(=O)(CCCCl)Nc1ccc(OCc2ccc3ccccc3n2)cc1 | 117 °C |
| Cn1c(CCN2CCN(Cc3ccccc3)CC2)nc2ccc3ccccc3c21 | 144 to 146 °C |
| O=C1Nc2ccc(Cl)cc2C1(O)c1cccc(F)c1F (stereo not given) | 248 °C |
| CCOC(=O)c1cnn(C)c1C(=O)Nc1ccc2nc(N(C)C)nn2c1 | 194 °C |

| Structure (SMILES) | melting point |
| --- | --- |
| COc1cc(Br)c2oc(-c3ccc(OC)c(F)c3)nc2c1 | 175 to 177 °C |
| CCOc1ccc(C2(c3ccc(OC)cc3)CC2(Cl)Cl)cc1 (stereo not given) | 114 to 117 °C |
| CC1(C)CC(=O)c2c(nc(Cc3ccc(Cl)cc3)c3[nH]c4ccccc4c23)C1 | 205 to 207 °C |
| CN(C)C(=O)Cc1ccccc1Nc1c(F)c(F)cc(F)c1F | 109 to 110 °C |
| COc1ccc(Oc2cccc(Cl)n2)cc1 | 63 to 65 °C |
| NS(=O)(=O)c1cscc1C(=O)O | 222 to 224 °C |
| O=S(=O)(c1ccccc1)c1ccc2c(c1)[C@@H](O)[C@H](Br)CCO2 (relative stereo) | 190 to 193 °C |
| Cc1cc(C)c(Nc2nc(C)ncc2S(=O)(=O)c2ccc(-c3ncccn3)cc2)c(C)c1 | 215 to 217 °C |
| CCOC(=O)NN=C(c1ccc(Cl)cc1)c1ccc(OP(=S)(OCC)OCC)cc1 | 106 °C |
| O=C(CCc1ccc(O)cc1)OCc1ccc([N+](=O)[O-])cc1 | 80 to 82 °C |
| O=C(O)c1cc(Sc2nc3cc(Cl)ccc3[nH]2)c2[nH]c(=O)[nH]c2c1 | 326 to 330 °C |
| C=C(c1ccc(C)cc1)c1ccc(N2CCCC2)cc1 | 134 to 136 °C |
| COC(=O)CCNC(=O)C1CCCN1S(=O)(=O)c1ccc(Cl)c(COc2cccc3c(C)cc(C)nc23)c1Cl (stereo not given) | 64 to 67 °C |
| CCC1=CC(C)(C)Oc2c(OC)cc(Cc3cnc(N)nc3N)cc21 | 256 to 257 °C |
| O=C(SC1CCN(C(C(=O)C2CC2)c2ccccc2F)CC1)c1ccccc1 (stereo not given) | 55 to 59 °C |
| CC(C)CN1C(=O)[C@@H](CC(=O)O)N[C@H](c2ccccc2Cl)c2cc(Cl)ccc21 | 184 to 188 °C |
| CC(C)OC(=O)NC1=NCC(c2cccc(F)c2)N1C (stereo not given) | 103 to 104 °C |
| CCCCCCCCCCCCCCCCOc1ccc(OCC(=O)N(Cc2ccccn2)C(C)=O)cc1 | 58 to 59 °C |
| CCc1cccc(Cl)c1C(=O)N[C@@H](Cc1ccc(-c2c(C)n(C)c(=O)n(C)c2=O)cc1)C(=O)O | 187 to 190 °C |
| CC(=O)N1CCc2cc(N)cnc21 | 193 to 195 °C |
| O=c1[nH]c(N2CCN(CCCCN3CCCCC3)CC2)cc2ccc(Br)cc12 | 211 to 212 °C |
| CCCc1ccc(S(=O)(=O)n2c(CCC(=O)O)cc3cc(Cl)ccc32)cc1 | 144 to 148 °C |
